Entries after “also recorded” stand apart in the source; their conditions may differ. Read-outs that look alike come from different tables or passages of the source.
Tests used:
[1] = tested on: neuroblastoma N1E-115 cells; test: Growth and morphological differentiation of mouse neuroblastoma N1E-115 cells; conditions: for range of effective concentrations that inhibited cell proliferation and induced morphological differentiation / effects on cell appearance: N1E-115 cells; for range of effective concentrations that inhibited cell proliferation and induced morphological differentiation: below range no noticeable effect, above range cytotoxic; for effects on cell appearance: morphology; for most effective concentration for the cells tested: summary, cells tested in the present invention; for effect on cell division and morphological differentiation: 3 days; for effect on cell division and morphological differentiation / long-term effect on cell division / effects on cell growth and differentiation: single application; for long-term effect on cell division: 6 days
Experimental: A,B: Untreated cells, 3 (A) and 8 (B) days after subculture. C,D: Cells grown for 3 (C) and 8 (D) days with 12.8 μM Debromoshermilamine. E,F: Cells grown for 7 days with Isosegoline A (39 μM) and Norsegoline (16.3 μM), respectively.
A,B: Untreated cells 3 (A) and 6 (B) days after subculture. C,D: Cells grown for 3 (C) and 6 (D) days with 50 μM forskolin. E,F: Cells grown for 3 (E) and 6 (F) days with 39 μM Segoline A. G,H: Cells grown for 3 (G) and 6 (H) days with 0.14 μM Eilatin.
Cells were grown for six days in the absence of drugs (A), or in the presence of: 10 μM 4-methylpyrido[2,3,4-kl]acridine (B), 4 μM pyrido[2,3,4-kl]acridine (C), 0.08 μM Eilatin (D), 75 μM forskolin (E).
The inventors chose the neuroblastoma N1E-115 cells because these tumor-derived cells can be induced to express characteristic neuronal properties by a variety of procedures see Spector, "Electrophysiology of clonal nerve cell lines. In: Excitable Cells in Tissue Culture", Nelson et al. eds., Plenum, New York 247-277 (1981) and can serve as a useful experimental system in which to explore the effects of the Eudistoma alkaloids on the biological properties of both cancer cells and neuronal cells.
The N1E-115 cells were exposed to various concentrations of the six (6) natural products shown in FIG. 1, and of the two synthetic pyridoacridines shown in Scheme III of FIG. 2. […] A,B: Untreated cells, 3 (A) and 8 (B) days after subculture. C,D: Cells grown for 3 (C) and (8) days with 12.8 μM Debromoshermilamine. E,F: Cells grown for 7 days with Isosegoline A (39 μM) and Norsegoline (16.3 μM), respectively. FIG. 5 illustrates the appearance of N1E-115 cells 6 days after replating in the absence (A) and in the presence of 10 μM 4-methylpyrido[2,3,4-kl]acridine (B), or 4 μM pyrido[2,3,4-kl]acridine.

[2] = tested on: normal hamster fibroblast NIL8 cell line; test: Growth and morphology of normal NIL8 fibroblast cells; format: cell-based; conditions: single application
NIL8-HSV cells = tested on: NIL8-HSV cells
Experimental: A-D Cells grown for 6 days in the absence of drugs (A), or in the presence of 75 μM forskolin (B), 13 μM Segoline B (C) or 0.21 μM Eilatin (D). E and F show the appearance of the Segoline B- and Eilatin-treated cells, 7 days after removal of the toxins.
A: F-actin staining in control cells. B: F-actin staining in a cell treated for 4 days with 13 μM Segoline B.
Cells were grown for 6 days in the absence of drugs (A), or in the presence of 10 μM 4-methylpyrido[2,3,4-kl]acridine (B), 4 μM pyrido[2,3,4-kl]acridine (C), 0.08 μM eilatin (D), or 75 μM forskolin (E).
As reviewed by Willingham, Int. Rev. […] Transformed fibroblasts which display altered growth patterns and aberrant morphologies respond to cAMP elevation by restoration of many normal aspects of growth and morphology, a phenomenon known as "cAMP-mediated reverse transformation" as described by Lockwood et al., J. Cell. Biochem., 33, 237-255 (1987).
A-D show cells grown for 6 days in the absence of drugs (A), or in the presence of 75 μM forskolin (B), 13 μM Segoline B (C) or 0.21 μM Eilatin (D). E and F show the appearance of the Segoline B- and Eilatin-treated cells, 7 days after removal of the toxins.
A: F-actin staining in control cells.

[3] = tested on: normal hamster fibroblast NIL8 cell line; test: Growth and morphology of normal NIL8 fibroblast cells; format: cell-based
Experimental: Cells were grown for 5 days in the absence of drugs (A), and in the presence of 25 μM forskolin (B), 1.4 μM Eilatin (C), or 12.8 μM Debromoshermilamine (D). […]
As illustrated, a single application of 1.4 μM Eilatin or 12.8 μM Debromoshermilamine to NIL8 cells produced effects which are strikingly similar to those obtained by chronically treating time cells with agents that elevate or mimic cAMP. […] This predilection towards cancer cells is a very desirable property in developing potential drugs for the treatment of cancer.

[4] = tested on: type II cAMP-dependent protein kinase; conditions: literature; cited from earlier work
pyruvate kinase = test: Pyruvate kinase activity in cultured rat hepatoma FAO cells; format: cell-based; conditions: for Km: control 0.14, read-out: Km for the substrate phosphoenolpyruvate (PEP)
Experimental: FIG. 11 is a graph showing the effects of the Eudistoma alkaloids on pyruvate kinase activity in cultured rat hepatoma FAO cells. Enzyme activity v/Vmax was assayed as described in Example IV in partially purified extracts from cells incubated for 1 h in the absence ( ) or presence of 100 μM CPT-cAMP (.cndot.) and 26 μM segoline A ( ) as a function of substrate concentrations (phosphoenolpyruvate, PEP).
1. Activity of pyruvate kinase--a key glycolytic enzyme whose activity is inhibited by cAMP-dependent phosphorylation.
FIG. 11 is a graph showing the effects of the Eudistoma alkaloids on pyruvate kinase activity in cultured rat hepatoma FAO cells. Enzyme activity v/Vmax was assayed in partially purified extracts from cells incubated for 1 h in the absence (squares) or presence of 100 μM 8-(4-chlorophenylthio) cyclic AMP (CPT-cAMP)-CPT-cAMP (circles) and 26 μM Segoline A (triangles) as a function of substrate concentrations (phosphoenolpyruvate, PEP).

[5] = 1.4 μM Eilatin, 5 days, single application

COc1cc2c3c4c(ccnc14)-c1ccccc1N3C(C)C1(C)C(=O)NC(=O)C21 (single isomer, unassigned) [Isosegoline A]
range of effective concentrations that inhibited cell proliferation and induced morphological differentiation [1]: 12-52 μM
effects on cell appearance [1]: flattened cell bodies as well as numerous long neurites
most effective concentration for the cells tested [1]: 12 to 52 µM

Cc1ccc2c3c(ccnc13)-c1ccccc1N2 [4-methylpyrido[2,3,4-kl]acridine]
range of effective concentrations that inhibited cell proliferation and induced morphological differentiation [1]: 7.5-12.5 μM
effects on cell appearance [1]: most neurites were short
most effective concentration for the cells tested [1]: 7.5 to 12.5 µM
effect on NIL8 cells ([2]; 10 μM 4-methylpyrido[2,3,4-kl]acridine, 6 days): effects which were similar to those produced by the natural alkaloids

COc1cc2c3c4c(ccnc14)-c1ccccc1N3C1(C)C(=O)NC(=O)C2C1C (centres unmarked) [Segoline B]
reversal of the effects of transformation (NIL8-HSV cells; 13 μM Segoline B, one application): permanently reverse the effects of transformation
effects on cell shape and actin organization (NIL8-HSV cells; 13 μM Segoline B, FIGS. 8C, 9B): became large and flat and showed the typical network of stress fibers
growth and morphology after drug removal (NIL8-HSV cells; 7 days after removal of 13 μM Segoline B): maintained their reduced growth and flattened morphology

c1ccc2c(c1)nc1c3nc4ccccc4c4ccnc(c5nccc2c51)c43 [Eilatin]
cytotoxicity to transformed cells versus normal cells (NIL8-HSV cells): more cytotoxic to transformed cells than to normal cells
reverse transformation in NIL8-HSV cells (NIL8-HSV cells; 0.08 μM Eilatin): reverse transformation in NIL8-HSV cells
reversal of the effects of transformation (NIL8-HSV cells; 0.21 μM Eilatin, one application): permanently reverse the effects of transformation
effects on cell shape and actin organization (NIL8-HSV cells; 0.21 μM Eilatin, FIG. 8D): became large and flat and showed the typical network of stress fibers
growth and morphology after drug removal (NIL8-HSV cells; 7 days after removal of 0.21 μM Eilatin): maintained their reduced growth and flattened morphology
differentiation in N1E-115 cells ([1]; 0.08 μM Eilatin): produced differentiation in N1E-115 cells
effect on cell division and morphological differentiation ([1]; 0.14 μM Eilatin): inhibited cell division and induced morphological differentiation
long-term effect on cell division ([1]; 0.14 μM Eilatin): cell division is completely blocked
toxicity to transformed cells ([1]; 1.4 μM Eilatin, N1E-115 ("both the transformed cell lines")): toxic to both the transformed cell lines
range of effective concentrations that inhibited cell proliferation and induced morphological differentiation [1]: 0.05-0.5 μM
effects on cell appearance [1]: flattened cell bodies as well as numerous long neurites
potency relative to the other five naturally occurring compounds and the synthetic pyridoacridines ([1]; actions at the cellular level): 100 times
most effective concentration for the cells tested [1]: 0.05 to 0.5 µM
effect on NIL8 cells ([2]; 0.08 μM Eilatin): no effects on NIL8 cells; also recorded: did not exert any effect on the normal NIL8 cells
effect on cell shape of NIL8 cells [3, 5]: more elongated
effect on growth of NIL8 cells [3, 5]: growth was inhibited
effect on normal cells ([3]; at concentrations that induce differentiation and reverse transformation of transformed cells): no effect on normal cells

c1ccc2c(c1)Nc1cccc3nccc-2c13 [pyrido[2,3,4-kl]acridine]
range of effective concentrations that inhibited cell proliferation and induced morphological differentiation [1]: 2-5 μM
effects on cell appearance [1]: flattened cell bodies as well as numerous long neurites
most effective concentration for the cells tested [1]: 2 to 5 µM
effect on NIL8 cells ([2]; 4 μM pyrido[2,3,4-kl]acridine, 6 days): effects which were similar to those produced by the natural alkaloids

C=C[C@@]1(C)CC(=O)[C@]2(O)[C@@]3(C)[C@@H](O)CCC(C)(C)[C@@H]3[C@H](O)[C@H](OC(C)=O)[C@@]2(C)O1 [forskolin, reference compound]
long-term effect on transformed phenotype (NIL8-HSV cells; 75 μM forskolin, 6 days (FIG. 8B)): reverted to the transformed phenotype
reversal of the effects of transformation (NIL8-HSV cells; forskolin 50-100 μM, single application, data not shown): transiently reverse the effects of transformation
effect on cell division and morphological differentiation ([1]; 50 μM forskolin): inhibited cell division and induced morphological differentiation
long-term effect on cell division ([1]; 50 μM forskolin): became confluent like the control cells
effect on NIL8 cells ([3]; 25 μM forskolin, 5 days, single application): the cells reached the high saturation densities typical of untreated cultures

Nc1ncnc2c1nc(Cl)n2[C@@H]1O[C@@H]2COP(=O)(O)O[C@H]2[C@H]1O [8-chloro-cAMP, reference compound]
preferential binding to type II cAMP-dependent protein kinase [4]: bind preferentially to type II cAMP-dependent protein kinase
effects on cell growth and differentiation ([1]; 8-chloro cAMP 250 μM): transient effects

COC(=O)c1cc(OC)c2nccc3c2c1Nc1ccccc1-3 [Norsegoline]
range of effective concentrations that inhibited cell proliferation and induced morphological differentiation [1]: 8-40 μM
effects on cell appearance [1]: relatively small cell bodies and numerous long neurites
most effective concentration for the cells tested [1]: 8 to 40 µM
Km (pyruvate kinase; concentration of alkaloid not given): 400 µM
inhibition of pyruvate kinase activity (pyruvate kinase; submaximal substrate concentrations): inhibit pyruvate kinase activity
rise in the Km for substrate (phosphoenolpyruvate) (pyruvate kinase; versus control): ca. 3 fold

Nc1ncnc2c1nc(Sc1ccc(Cl)cc1)n2[C@@H]1O[C@@H]2COP(=O)(O)O[C@H]2[C@H]1O [CPT-cAMP, 8-(4-chlorophenylthio) cyclic AMP, reference compound]
preferential binding to type II cAMP-dependent protein kinase [4]: bind preferentially to type II cAMP-dependent protein kinase
effects on cell growth and differentiation ([1]; CPT-cAMP 250-500 μM): transient effects
Km (pyruvate kinase; 100 μM CPT-cAMP, 1 h): 520 µM

— patent publication US5432172A, “Biological applications of alkaloids derived from the tunicate Eudistoma sp” (The Research Foundation of State University of New York, priority 1993, dated 1995)
